# Results: patent publication US5906922A, “Delivery of nucleic acids” (Commonwealth Scientific and Industrial Research Organisation, priority 1994, dated 1999)
# Like-named read-outs stand apart in the source and are kept apart here. Where a SMILES comes first, the peptide text is derived from it. The star is where a group is joined. NHC(CH2O-Palmitoyl)3 = CCCCCCCCCCCCCCCC(=O)OCC(COC(=O)CCCCCCCCCCCCCCC)(COC(=O)CCCCCCCCCCCCCCC)N*; X1 = CCCCCCCCCCCCCCCC(=O)OCC(CO)(CO)N*
# Columns and labels:
# CHO cells [1] = experiment: Transfection of pSVLCAT, CAT assay, CHO; assay type: cell-based, Chinese Hamster; details: for Transfection (CAT): Table 1, CHO, optimised level of agent
# Experimental: Protocol was the same for Verafectin and Transfectam (see above) with the exception that 0.5 μg of pSVLCAT DNA was used /60 mm dish.
# Lipofectamine protocol was according to manufacturer's instructions. 0.5 μg pSVLCAT/60 mm dish. CHO cells seeded 1×10^5 /60 mm dish and adhered overnight in DME/Hams medium with 10% FCS.
# Transfectam 5 or 10 μl 1mg/400 μl stock solution.
# Lipofectamine 5 or 10 μl 2 mg/ml (mixed formulation 3:1 with DOPE). VerafectinA3 (K3ATP3) and VerafectinG2 (K3G[Glycine]TP2) each at 5, 10 and 15 μl of 2 mM (2.8 and 2.3 mg/ml respectively) stock.
# The serum free incubation period in the presence of test agents and DNA was 6 hours, then 1 ml DME/Hams+10% FCS was added. At 24 hrs the medium was changed to 2 ml of fresh DME/Hams+10% FCS until harvest at 48 hrs.
# (§1) Cell lines Cos 1 or CHO were transfected with 0.5 μg of pSVLCAT or 2 μg of pPGKlacZ plasmid using a range of concentrations of each transfection compound. The optimal concentration of compound, that is the concentration giving the highest level of CAT at 48 hours or the greatest percentage of lac z (β-galactosidase) staining cells at 24 hours was used to collate data for Table 1. As all compounds were not tested in a single experiment, absolute figures indicating transfection were not used. Rather, symbols are used to indicate the transfection efficiency relative to Lipofectamine (BRL), which was included as a control in all experiments. Table 1 thus indicates the relative efficiencies of a number of compounds in mediating the transfection of at least one cell type.
# All test lipopeptide reagents were originally dissolved at 10 mM in 75% DMSO, and subsequently diluted with water to make a 2 mM stock stored at 4° C. Volumes of 2 mM stock lipopeptide ranging from 2 μl to 15 μl were diluted in 500 μl of DDME. 1 μg of plasmid pSVLCAT was separately diluted in 500 μl of DDME. Solutions were combined for 10-20 min at room temperature before adding to 500 μl of DDME in 60 mm dishes of subconfluent CHO cells (2×10^5 day-1) or Cos 1 cells (5×10^5 day-1); washed free of serum with DDME.
# Cells were incubated for 6 hrs under standard conditions of 37° C. and 5% CO2 for 6 hours. 1.5 ml of DME/Hams+10% FCS (CHO) or DME+10% FCS (Cos 1) was added to the cells for overnight incubation. Fresh DME/Hams+10% FCS or DME+10% FCS was used to replace the medium for a further 24 hours prior to harvest. Cell lysates were prepared and assayed for CAT activity as described above. For Cos 1 cells, culture supernatants were assayed for CAT activity.
# a. Using the standard transfection procedure described above, and 1 μg plasmid pSVLCAT, these formulations were tested on CHO cells at a single concentration equivalent to 10 μl of Verafectin A2 (2 mM) per sample and compared to unformulated compound and Lipofectamine in the same cell type. CAT production was assayed 48 hours after transfection.
# CHO cells [2] = experiment: Proportion of cells transfected (β-gal staining), CHO; assay type: cell-based, Chinese Hamster
# Experimental: as §1
# These conjugates were used to transfect CHO and Cos 1 cells with pPGKlacZNLS for estimation of the proportion of cells transfected. The transfection conditions used were as described above for the CAT experiments with cells being grown in 35 mm dishes for transfection. Cells were seeded the day prior to transfection at a density of 3.4×10^5 /dish (Cos 1) or 6.8×10^4 /dish (CHO). […] Random fields of cells were examined under the light microscope and the proportion of blue (β-GAL expressing) cells was determined. […]
# Cos 1 cells [3] = experiment: Proportion of cells transfected (β-gal staining), Cos 1; assay type: cell-based, African Green Monkey; details: Table 1, Cos 1, % of cells
# Experimental: as §1
# These conjugates were used to transfect CHO and Cos 1 cells with pPGKlacZNLS for estimation of the proportion of cells transfected. The transfection conditions used were as described above for the CAT experiments with cells being grown in 35 mm dishes for transfection. Cells were seeded the day prior to transfection at a density of 3.4×10^5 /dish (Cos 1) or 6.8×10^4 /dish (CHO). […] Random fields of cells were examined under the light microscope and the proportion of blue (β-GAL expressing) cells was determined.
# Cos 1 cells [4] = experiment: Transfection of pSVLCAT, CAT assay, Cos 1; assay type: cell-based, African Green Monkey; details: for Transfection (CAT): Table 1, Cos 1, optimised level of agent
# Cos 1 cells [5] = assay type: cell-based, African Green Monkey
# Procedure, shortened: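 Relative viability of Cos 1 cells exposed to lipid/DNA agents was read as MTS optical density; higher OD means greater viability. Some points came from separate experiments.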
# mammalian cells = experiment: Transfection efficiency, general conclusions over cell lines; assay type: cell-based; details: other experiments (not shown)
# Experimental: as §1
# The compounds of the generic formula described on page 3 were addressed as consisting of the described basic building blocks: "x, y, R1-R4". These components were systematically varied to assess the optimal building blocks for transfection of standard cell lines in a standard assay system. Results will be presented by the use of example experiments, and shown as the levels of reporter gene expression achieved under standard conditions by either overall levels (CAT or β-galactosidase expression) or as % cells transfected (β-galactosidase--blue cells). Representative levels of cytotoxicity will also be described. […]
# Cos 1 cells [6] = experiment: β-gal microtitre plate transfection assay, Cos 1; assay type: cell-based, African Green Monkey; details: for β-gal (Cos 1): Table 3, Cos 1, highest reading of 72 conditions
# Procedure, shortened: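 Cos 1 cells were transfected with β-galactosidase plasmids (mouse PGK or SV40 early promoter) across varied lipid/DNA ratios in microtitre format. The lipid/DNA ratio giving maximal expression was recorded. Viability was measured with alamar blue or MTS, where higher OD means greater viability.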
# Cos 1 cells [7] = assay type: cell-based, African Green Monkey; remark: listed apart in the source
# Excerpt: (§2) Relative levels of cytotoxicity caused by the different agents were compared during the experiment using the dye "Alamar Blue" (Alamar, Sacramento Calif.).
# (§3) For experiment "c", a plasmid pPGKlaczNLS encoding β-galactosidase under the control of the mouse PGK promoter (kind gift from G.Hannan) or pSVGAL which utilises the SV40 early promoter (Sleigh, M. J. and Lockett, T. J. (1985). EMBO J. 4:3831-3837),was transfected. This experiment and assay were modified from Feigner et al J. Biol Chem. 269(4) 2550-2561 1994. This protocol allows the simultaneous assessment of 72 different combinations and concentrations of DNA and test agent in a microtitre tray. […] Cytotoxicity was assessed using alamar blue, and a sample graph is shown for experiment a.
# The ratio of [lipid]/[DNA] at which that maximum was achieved is shown. Experiments shown were carried out in Cos 1 cells, as described above. MTS OD is a measure of relative viabilility of the cells exposed to the different agents, a higher value indicates greater cell viability. * These points were taken from a separate experiment and some slight variation between absolute numbers should be expected between experiments.
# (§4) The ratio of [lipid]/[DNA] at which that maximum was achieved is shown in brackets for the two different cell types in the following order; (Cos 1) (CHO). Experiments shown were carried out in Cos 1 cells, as described above. Viability was measured with the dye alamar blue . # Denotes compounds tested in a separate experiment. * Viability in this experiment was determined with MTS. OD is a measure of relative viability of the cells exposed to the different agents, and as with alamar blue, a higher value indicates greater cell viability.
# CHO cells [8] = assay type: cell-based, Chinese Hamster
# Experimental: (LEGEND--FIGS. 7, 8 and 9; none; no agent used with plasmid DNA, rb/blank; reagent blank, number following description of compound indicates no. μl of 2 mM stock (diluted with water). 7b: 100% cell survival was taken from dishes which were "mock transfected" with no DNA or transfection agent. 0% viability was assayed in the absence of cells. Viability was assessed using the dye alamar blue.)
# as §2, §4
# CHO cells [9] = experiment: β-gal microtitre plate transfection assay, CHO; assay type: cell-based, Chinese Hamster; details: Table 3, CHO, highest reading of 72 conditions
# Excerpt: as §3
# Each of these compounds was tested for transfection ability and cytotoxicity on standard cell lines using standard conditions as described above.
# as §4
# Hela cells = experiment: β-gal plate transfection assay, Hela; assay type: cell-based, Human; details: 48 hours
# Experimental: Hela cells were seeded in place of Cosl or CHO cells in DME+10% FCS at a density of 2×10^4 /well and transfected with pPGKlaczNLS as described above. At 48 hours, toxicity was determined by alamar blue and the cells processed for the β-gal assay.
compound,measurement,setting,value
CCCCCCCCCCCCCCCC(=O)OCC(COC(=O)CCCCCCCCCCCCCCC)(COC(=O)CCCCCCCCCCCCCCC)NC(=O)[C@H](C)N [K0ATP3],CAT transfection,"CHO cells [1]; ""x"" peptide experiment a, CHO",no measurable transfection
same,transfection (β-gal assay),CHO cells [2]; CHO cells,low levels of transfection
CCCCCCCCCCCCCCCC(=O)OCC(COC(=O)CCCCCCCCCCCCCCC)(COC(=O)CCCCCCCCCCCCCCC)NC(=O)[C@H](C)NC(=O)[C@H](CCCCN)NC(=O)[C@H](CCCCN)NC(=O)[C@H](CCCCN)NC(=O)[C@@H](N)CCCCN [K4ATP3] (H-KKKKA-{NHC(CH2O-Palmitoyl)3}),mean level of CAT activity,"CHO cells [1]; ""x"" peptide experiment c, CHO, 2 hours incubation of 20 μl lysate",1071
same,Transfection (βGal),Cos 1 cells [3],< 1%
same,"transfection, one to three palmitates, tetra lysine alanine","Cos 1 cells [4]; R1-R4 experiment g, Cos 1",more effective than the di or monopalmitate
same,Transfection (CAT),Cos 1 cells [4],+(+)
"CCCCCCCCCCCCCCCC(=O)OCC(CO)(CO)NC(=O)[C@H](C)NC(=O)[C@H](CCCCN)NC(=O)[C@H](CCCCN)NC(=O)[C@@H](N)CCCCN [K3ATP1, trilysine alanine tris monopalmitate] (H-KKKA-X1)",MTS OD490-655,Cos 1 cells [5],1.34
same,Viability (Cos 1),Cos 1 cells [5],1.34
same,activity relative to tripalmitate K3 molecules,mammalian cells,30%
same,Transfection (CAT),CHO cells [1],+
same,ratio [lipid]/[DNA] at which maximum was achieved,"Cos 1 cells [6]; Table 2, Cos 1",5.55
same,units β-gal,"Cos 1 cells [6]; Table 2, Cos 1, highest reading of 72 conditions",9.32 × 10^-6 units
same,ratio [lipid]/[DNA] at which maximum was achieved,"Cos 1 cells [6]; Table 3, Cos 1",5.55
same,β-gal (Cos 1),Cos 1 cells [6],9.32 × 10^-6
same,Transfection (CAT),Cos 1 cells [4],+
CCCCCCCCCCCCCCCC(=O)OCC(CO)(COC(=O)CCCCCCCCCCCCCCC)NC(=O)CNC(=O)[C@H](CCCCN)NC(=O)[C@H](CCCCN)NC(=O)[C@@H](N)CCCCN [K3GTP2],CAT levels relative to Lipofectamine,"CHO cells [1]; Experiment 3, CHO, 5 μl",~22%
same,CAT levels relative to Transfectam,"CHO cells [1]; Experiment 3, CHO, 5 μl",approximately 64%
same,Transfection (CAT),CHO cells [1],+++
same,Transfection (βGal),"CHO cells [2]; Table 1, CHO, % of cells",< 1%
same,transfection level relative to Lipofectamine,"Cos 1 cells [4]; Experiment 4, Cos 1, 48 hours",~30%
same,effect of equimolar DOPE on transfection efficiency,"Cos 1 cells [4]; Experiment 4, Cos 1, compared to VerafectinG2 alone",approximate doubling of transfection efficiency
same,transfection level with equimolar DOPE relative to Lipofectamine,"Cos 1 cells [4]; Experiment 4, Cos 1, plus equimolar unformulated DOPE",approximately 60%
same,Transfection (CAT),Cos 1 cells [4],++
CCCCCCCCCC(=O)OCC(COC(=O)CCCCCCCCC)(COC(=O)CCCCCCCCC)NC(=O)[C@H](C)NC(=O)[C@H](CCCCN)NC(=O)[C@H](CCCCN)NC(=O)[C@@H](N)CCCCN [K3ATC3],Viability (Cos 1),Cos 1 cells [7],0.104
same,Viability (CHO),CHO cells [8],0.052
same,ratio [lipid]/[DNA] at which maximum was achieved,"Cos 1 cells [6]; Table 3, Cos 1",2.77
same,β-gal (Cos 1),Cos 1 cells [6],9.08 × 10^-6
same,β-gal (CHO),CHO cells [9],5.27 × 10^-6
same,"transfection ability, chain length C10 to C16",Hela cells,transfection ability was seriously curtailed
